# Measurements published in ChEMBL document CHEMBL2429768, “Eco-friendly synthesis and antimicrobial activities of substituted-5-(1H-indol-3-yl)methylene)-2,2-dimethyl-1,3-dioxane-4,6-dione derivatives” (2013).
# How the values were obtained:
# Assay type in all cases: functional
# Aspergillus niger [1] = experiment: Antifungal activity against Aspergillus niger at 50 ug/ml after 72 hrs by agar well diffusion method; settings: read-out: DIZ
# Fusarium oxysporum [2] = experiment: Antifungal activity against Fusarium oxysporum at 500 ug/ml after 72 hrs by agar well diffusion method; settings: read-out: DIZ
# Fusarium oxysporum [3] = experiment: Antifungal activity against Fusarium oxysporum at 300 ug/ml after 72 hrs by agar well diffusion method; settings: read-out: DIZ
# Fusarium oxysporum [4] = experiment: Antifungal activity against Fusarium oxysporum at 200 ug/ml after 72 hrs by agar well diffusion method; settings: read-out: DIZ
# Fusarium oxysporum [5] = experiment: Antifungal activity against Fusarium oxysporum at 100 ug/ml after 72 hrs by agar well diffusion method; settings: read-out: DIZ
# Fusarium oxysporum [6] = experiment: Antifungal activity against Fusarium oxysporum at 50 ug/ml after 72 hrs by agar well diffusion method; settings: read-out: DIZ
# Rhizoctonia solani [7] = experiment: Antifungal activity against Rhizoctonia solani at 500 ug/ml after 72 hrs by agar well diffusion method; settings: read-out: DIZ
# Rhizoctonia solani [8] = experiment: Antifungal activity against Rhizoctonia solani at 300 ug/ml after 72 hrs by agar well diffusion method; settings: read-out: DIZ
# Rhizoctonia solani [9] = experiment: Antifungal activity against Rhizoctonia solani at 200 ug/ml after 72 hrs by agar well diffusion method; settings: read-out: DIZ
# Rhizoctonia solani [10] = experiment: Antifungal activity against Rhizoctonia solani at 100 ug/ml after 72 hrs by agar well diffusion method; settings: read-out: DIZ
# Rhizoctonia solani [11] = experiment: Antifungal activity against Rhizoctonia solani at 50 ug/ml after 72 hrs by agar well diffusion method; settings: read-out: DIZ
# Bacillus subtilis [12] = experiment: Antibacterial activity against Bacillus subtilis at 500 ug/ml after 24 hrs by agar well diffusion method; settings: read-out: DIZ
# Bacillus subtilis [13] = experiment: Antibacterial activity against Bacillus subtilis at 300 ug/ml after 24 hrs by agar well diffusion method; settings: read-out: DIZ
# Bacillus subtilis [14] = experiment: Antibacterial activity against Bacillus subtilis at 200 ug/ml after 24 hrs by agar well diffusion method; settings: read-out: DIZ
# Bacillus subtilis [15] = experiment: Antibacterial activity against Bacillus subtilis at 100 ug/ml after 24 hrs by agar well diffusion method; settings: read-out: DIZ
# Bacillus subtilis [16] = experiment: Antibacterial activity against Bacillus subtilis at 50 ug/ml after 24 hrs by agar well diffusion method; settings: read-out: DIZ
# Staphylococcus aureus [17] = experiment: Antibacterial activity against Staphylococcus aureus ATCC 6538 at 500 ug/ml after 24 hrs by agar well diffusion method; settings: ATCC 6538, 24 h, read-out: DIZ
# Staphylococcus aureus [18] = experiment: Antibacterial activity against Staphylococcus aureus ATCC 6538 at 300 ug/ml after 24 hrs by agar well diffusion method; settings: ATCC 6538, 24 h, read-out: DIZ
# Staphylococcus aureus [19] = experiment: Antibacterial activity against Staphylococcus aureus ATCC 6538 at 200 ug/ml after 24 hrs by agar well diffusion method; settings: ATCC 6538, 24 h, read-out: DIZ
# Staphylococcus aureus [20] = experiment: Antibacterial activity against Staphylococcus aureus ATCC 6538 at 100 ug/ml after 24 hrs by agar well diffusion method; settings: ATCC 6538, 24 h, read-out: DIZ
# Escherichia coli [21] = experiment: Antibacterial activity against Escherichia coli ATCC 8739 at 300 ug/ml after 24 hrs by agar well diffusion method; settings: ATCC 8739, 24 h, read-out: DIZ
# Escherichia coli [22] = experiment: Antibacterial activity against Escherichia coli ATCC 8739 at 200 ug/ml after 24 hrs by agar well diffusion method; settings: ATCC 8739, 24 h, read-out: DIZ
# Escherichia coli [23] = experiment: Antibacterial activity against Escherichia coli ATCC 8739 at 100 ug/ml after 24 hrs by agar well diffusion method; settings: ATCC 8739, 24 h, read-out: DIZ
# Escherichia coli [24] = experiment: Antibacterial activity against Escherichia coli ATCC 8739 at 50 ug/ml after 24 hrs by agar well diffusion method; settings: ATCC 8739, 24 h, read-out: DIZ
# Klebsiella pneumoniae [25] = experiment: Antibacterial activity against Klebsiella pneumoniae at 500 ug/ml after 24 hrs by agar well diffusion method; settings: read-out: DIZ
# Klebsiella pneumoniae [26] = experiment: Antibacterial activity against Klebsiella pneumoniae at 300 ug/ml after 24 hrs by agar well diffusion method; settings: read-out: DIZ
# Klebsiella pneumoniae [27] = experiment: Antibacterial activity against Klebsiella pneumoniae at 200 ug/ml after 24 hrs by agar well diffusion method; settings: read-out: DIZ
# Klebsiella pneumoniae [28] = experiment: Antibacterial activity against Klebsiella pneumoniae at 50 ug/ml after 24 hrs by agar well diffusion method; settings: read-out: DIZ
# Escherichia coli [29] = experiment: Antibacterial activity against Escherichia coli ATCC 8739 at 500 ug/ml after 24 hrs by agar well diffusion method; settings: ATCC 8739, 24 h, read-out: DIZ
# Klebsiella pneumoniae [30] = experiment: Antibacterial activity against Klebsiella pneumoniae at 100 ug/ml after 24 hrs by agar well diffusion method; settings: read-out: DIZ
# Staphylococcus aureus [31] = experiment: Antibacterial activity against Staphylococcus aureus ATCC 6538 at 50 ug/ml after 24 hrs by agar well diffusion method; settings: ATCC 6538, 24 h, read-out: DIZ
# Aspergillus flavus [32] = experiment: Antifungal activity against Aspergillus flavus at 50 ug/ml after 72 hrs by agar well diffusion method; settings: read-out: DIZ
# Aspergillus flavus [33] = experiment: Antifungal activity against Aspergillus flavus at 100 ug/ml after 72 hrs by agar well diffusion method; settings: read-out: DIZ
# Aspergillus flavus [34] = experiment: Antifungal activity against Aspergillus flavus after 72 hrs by agar well diffusion method
# Aspergillus niger [35] = experiment: Antifungal activity against Aspergillus niger after 72 hrs by agar well diffusion method
# Fusarium oxysporum [36] = experiment: Antifungal activity against Fusarium oxysporum after 72 hrs by agar well diffusion method
# Rhizoctonia solani [37] = experiment: Antifungal activity against Rhizoctonia solani after 72 hrs by agar well diffusion method
# Bacillus subtilis [38] = experiment: Antibacterial activity against Bacillus subtilis after 24 hrs by agar well diffusion method
# Staphylococcus aureus [39] = experiment: Antibacterial activity against Staphylococcus aureus ATCC 6538 after 24 hrs by agar well diffusion method; settings: ATCC 6538, 24 h
# Escherichia coli [40] = experiment: Antibacterial activity against Escherichia coli ATCC 8739 after 24 hrs by agar well diffusion method; settings: ATCC 8739, 24 h
# Klebsiella pneumoniae [41] = experiment: Antibacterial activity against Klebsiella pneumoniae after 24 hrs by agar well diffusion method
# Aspergillus flavus [42] = experiment: Antifungal activity against Aspergillus flavus at 500 ug/ml after 72 hrs by agar well diffusion method; settings: read-out: DIZ
# Aspergillus flavus [43] = experiment: Antifungal activity against Aspergillus flavus at 300 ug/ml after 72 hrs by agar well diffusion method; settings: read-out: DIZ
# Aspergillus flavus [44] = experiment: Antifungal activity against Aspergillus flavus at 200 ug/ml after 72 hrs by agar well diffusion method; settings: read-out: DIZ
# Aspergillus niger [45] = experiment: Antifungal activity against Aspergillus niger at 500 ug/ml after 72 hrs by agar well diffusion method; settings: read-out: DIZ
# Aspergillus niger [46] = experiment: Antifungal activity against Aspergillus niger at 300 ug/ml after 72 hrs by agar well diffusion method; settings: read-out: DIZ
# Aspergillus niger [47] = experiment: Antifungal activity against Aspergillus niger at 200 ug/ml after 72 hrs by agar well diffusion method; settings: read-out: DIZ
# Aspergillus niger [48] = experiment: Antifungal activity against Aspergillus niger at 100 ug/ml after 72 hrs by agar well diffusion method; settings: read-out: DIZ
structure (smiles),measurement,setting,value
CCn1cc(C=C2C(=O)OC(C)(C)OC2=O)c2cc(OC)ccc21,zone of inhibition at 50 µg/mL,Aspergillus niger [1],6 mm
same,zone of inhibition at 500 µg/mL,Fusarium oxysporum [2],29 mm
same,zone of inhibition at 300 µg/mL,Fusarium oxysporum [3],21 mm
same,zone of inhibition at 200 µg/mL,Fusarium oxysporum [4],16 mm
same,zone of inhibition at 100 µg/mL,Fusarium oxysporum [5],12 mm
same,zone of inhibition at 50 µg/mL,Fusarium oxysporum [6],7 mm
same,zone of inhibition at 500 µg/mL,Rhizoctonia solani [7],29 mm
same,zone of inhibition at 300 µg/mL,Rhizoctonia solani [8],21 mm
same,zone of inhibition at 200 µg/mL,Rhizoctonia solani [9],16 mm
same,zone of inhibition at 100 µg/mL,Rhizoctonia solani [10],12 mm
same,zone of inhibition at 50 µg/mL,Rhizoctonia solani [11],7 mm
same,zone of inhibition at 500 µg/mL,Bacillus subtilis [12],21 mm
same,zone of inhibition at 300 µg/mL,Bacillus subtilis [13],13 mm
same,zone of inhibition at 200 µg/mL,Bacillus subtilis [14],10 mm
same,zone of inhibition at 100 µg/mL,Bacillus subtilis [15],8 mm
same,zone of inhibition at 50 µg/mL,Bacillus subtilis [16],4 mm
same,zone of inhibition at 500 µg/mL,Staphylococcus aureus [17],22 mm
same,zone of inhibition at 300 µg/mL,Staphylococcus aureus [18],14 mm
same,zone of inhibition at 200 µg/mL,Staphylococcus aureus [19],11 mm
same,zone of inhibition at 100 µg/mL,Staphylococcus aureus [20],9 mm
same,zone of inhibition at 300 µg/mL,Escherichia coli [21],16 mm
same,zone of inhibition at 200 µg/mL,Escherichia coli [22],13 mm
same,zone of inhibition at 100 µg/mL,Escherichia coli [23],10 mm
same,zone of inhibition at 50 µg/mL,Escherichia coli [24],6 mm
same,zone of inhibition at 500 µg/mL,Klebsiella pneumoniae [25],31 mm
same,zone of inhibition at 300 µg/mL,Klebsiella pneumoniae [26],20 mm
same,zone of inhibition at 200 µg/mL,Klebsiella pneumoniae [27],15 mm
same,zone of inhibition at 50 µg/mL,Klebsiella pneumoniae [28],8 mm
same,zone of inhibition at 500 µg/mL,Escherichia coli [29],26 mm
same,zone of inhibition at 100 µg/mL,Klebsiella pneumoniae [30],13 mm
same,zone of inhibition at 50 µg/mL,Staphylococcus aureus [31],4 mm
same,zone of inhibition at 50 µg/mL,Aspergillus flavus [32],4 mm
same,zone of inhibition at 100 µg/mL,Aspergillus flavus [33],9 mm
same,MIC,Aspergillus flavus [34],40 µg/mL
same,MIC,Aspergillus niger [35],40 µg/mL
same,MIC,Fusarium oxysporum [36],35 µg/mL
same,MIC,Rhizoctonia solani [37],35 µg/mL
same,MIC,Bacillus subtilis [38],30 µg/mL
same,MIC,Staphylococcus aureus [39],25 µg/mL
same,MIC,Escherichia coli [40],15 µg/mL
same,MIC,Klebsiella pneumoniae [41],15 µg/mL
same,zone of inhibition at 500 µg/mL,Aspergillus flavus [42],23 mm
same,zone of inhibition at 300 µg/mL,Aspergillus flavus [43],15 mm
same,zone of inhibition at 200 µg/mL,Aspergillus flavus [44],12 mm
same,zone of inhibition at 500 µg/mL,Aspergillus niger [45],25 mm
same,zone of inhibition at 300 µg/mL,Aspergillus niger [46],18 mm
same,zone of inhibition at 200 µg/mL,Aspergillus niger [47],14 mm
same,zone of inhibition at 100 µg/mL,Aspergillus niger [48],10 mm
